What was measured:
[1] = literature; cited from earlier work
BDNF = experiment: Hippocampal BDNF levels by sandwich ELISA; format: in vivo, mice; details: 3-week treatment (FIG. 3B), compared to saline
Procedure: Animals. ICR outbred mice (Envigo RMS (Harlen), Israel) were kept in the vivarium of the Psychobiological laboratory of the Open University, […] Medical Center, Jerusalem. Mice were kept on a reversed 12-hour light/dark cycle and given ad libitum access to food and water. All experiments were performed during the dark phase under red light (7:00-19:00). All experiments were approved by the Committee for animal care and use according to the NIH guidelines. Drugs administration. […] Assessment of BDNF levels. Hippocampus tissue samples are prepared as previously described ([…]., et al., European neuropsychopharmacology, 2006. 16(5): p. 329-339). Briefly, tissues were homogenized in cold extraction Tris-buffer and then acidified with 0.1 M HCl (pH 3.0) for 15 min at room temperature. Homogenates were neutralized with 0.1 M NaOH (pH 7.6) and centrifuged in a microcentrifuge at 7,000 g for 10 min. BDNF levels in the supernatant were evaluated using sandwich ELISA as previously described (Baker-Herman, T. L., et al., Nat Neurosci, 2004. 7(1): p. 48-55).

ICR outbred mice [2] = experiment: Elevated plus-maze (EPM), anxiety-like behavior in UCMS-stressed mice; format: in vivo; details: 3-week treatment (FIG. 2), compared to saline
Procedure: Animals. ICR outbred mice (Envigo RMS (Harlen), Israel) were kept in the vivarium of the Psychobiological laboratory of the Open University, […] Medical Center, Jerusalem. Mice were kept on a reversed 12-hour light/dark cycle and given ad libitum access to food and water. All experiments were performed during the dark phase under red light (7:00-19:00). All experiments were approved by the Committee for animal care and use according to the NIH guidelines. Drugs administration. […] Unpredictable chronic mild stress (UCMS). Mice were exposed to UCMS for 4 weeks at the age of 4 weeks as previously described (Malkoff, A., et al. (2008) J Neural Transm 115, 1563-1571). Elevated plus-maze (EPM) and Open field test (OFT). Anxiety-like behavior was assessed using EPM and OFT as previously described ([…]. (2009) Brain Res 1256, 138-148). Locomotion was assessed using the OFT and expressed as the percentage of time that the mouse moved in a velocity above 0.1 pixel/sec. Data analysis and interpretation of results. Data was analyzed using a one-way ANOVA with Treatment as a between subject variable, performed on the time spent in the center area in the Novel Open Field and the time spent in the open arms for anxiety like behavior, and depressive like behavior was measured as the time the animal spent floating without moving. […]

ICR outbred mice [3] = experiment: Forced Swim Test (FST), depressive-like behavior; format: in vivo; details: 3 week treatment after 30 days UCMS (FIG. 5B); in comparison to the NHT and Saline groups
Procedure: Animals. ICR outbred mice (Envigo RMS (Harlen), Israel) were kept in the vivarium of the Psychobiological laboratory of the Open University, […] Medical Center, Jerusalem. Mice were kept on a reversed 12-hour light/dark cycle and given ad libitum access to food and water. All experiments were performed during the dark phase under red light (7:00-19:00). All experiments were approved by the Committee for animal care and use according to the NIH guidelines. Drugs administration. […] Unpredictable chronic mild stress (UCMS). Mice were exposed to UCMS for 4 weeks at the age of 4 weeks as previously described (Malkoff, A., et al. (2008) J Neural Transm 115, 1563-1571). Forced Swim Test (FST). […] Depression like behavior was measured as the time the animal spent floated without moving, and swimming was defined as the time the animal spent engaged in active swimming or struggle movement. Effects were evaluated in independent mice groups following 1 and 3 weeks of treatment. The test was recorded by Viewer III (BIOB SERVE) software. […] Data was analyzed using a one-way ANOVA with Treatment as a between subject variable, performed on the time spent in the center area in the Novel Open Field and the time spent in the open arms for anxiety like behavior, and depressive like behavior was measured as the time the animal spent floating without moving. […]

ICR outbred mice [4] = experiment: Open field test (OFT), anxiety-like behavior; format: in vivo; details: 1-week treatment (FIG. 1C)
Procedure: Animals. ICR outbred mice (Envigo RMS (Harlen), Israel) were kept in the vivarium of the Psychobiological laboratory of the Open University, […] Medical Center, Jerusalem. Mice were kept on a reversed 12-hour light/dark cycle and given ad libitum access to food and water. All experiments were performed during the dark phase under red light (7:00-19:00). All experiments were approved by the Committee for animal care and use according to the NIH guidelines. Drugs administration. […] Unpredictable chronic mild stress (UCMS). Mice were exposed to UCMS for 4 weeks at the age of 4 weeks as previously described (Malkoff, A., et al. (2008) J Neural Transm 115, 1563-1571). Elevated plus-maze (EPM) and Open field test (OFT). Anxiety-like behavior was assessed using EPM and OFT as previously described ([…]. (2009) Brain Res 1256, 138-148). Locomotion was assessed using the OFT and expressed as the percentage of time that the mouse moved in a velocity above 0.1 pixel/sec.

ICR outbred mice [5] = experiment: Novel Open Field (NOF), anxiety-like behavior; format: in vivo; details: 3 weeks of treatment after 30 days UCMS (FIG. 4B); in comparison to the Saline and UR groups
Procedure: Animals. ICR outbred mice (Envigo RMS (Harlen), Israel) were kept in the vivarium of the Psychobiological laboratory of the Open University, […] Medical Center, Jerusalem. Mice were kept on a reversed 12-hour light/dark cycle and given ad libitum access to food and water. All experiments were performed during the dark phase under red light (7:00-19:00). All experiments were approved by the Committee for animal care and use according to the NIH guidelines. Drugs administration. […] Unpredictable chronic mild stress (UCMS). Mice were exposed to UCMS for 4 weeks at the age of 4 weeks as previously described (Malkoff, A., et al. (2008) J Neural Transm 115, 1563-1571). Novel Open Field (NOF). The novel open field consists of an empty square arena (40×40×40 cm) divided into 36 identical squares and surrounded by Perspex opaque walls. […] Mice were placed in the center of the arena and their behavior was video recorded for a total of 5 min, and later coded by an observer blind to the mice's treatment. Anxiety-like behavior was measured by the time spent in the peripheral area, i.e., the peripheral ring of the arena (6.67 cm from each wall, Walsh & Cummins, (1976) Psychological Bulletin, 83 (3), 482-504). […] Effects were evaluated in independent mice groups following 1 and 3 weeks of treatment. […]

SMILES | isolation-induced increased aggressiveness and decreased sociality [1] | hippocampal BDNF levels (BDNF) | anxiety-like behavior in the EPM (time spent in the open arms) (ICR outbred mice [2]) | time floated-immobile in the FST (depressive-like behavior) (ICR outbred mice [3]) | anxiety-like behavior in the OFT (ICR outbred mice [4]) | time in the center of the arena, novel open field (ICR outbred mice [5])
C/C=C1/CN2CCc3c([nH]c4ccccc34)[C@@H]2C[C@@H]1/C(=C/OC)C(=O)OC [GM, geissoschizine methyl ether] | ameliorated | – | – | – | – | –
CN(C)CCC[C@@]1(c2ccc(F)cc2)OCc2cc(C#N)ccc21 [escitalopram] | – | increased BDNF levels | reduced anxiety-like behavior | spent significantly less time floated-immobile | ineffective | spent significantly more time in the center of the arena

From patent publication US20240050510A1, “COMBINATION THERAPY COMPRISING UNCARIA FOR TREATING ANXIETY AND DEPRESSION” (The Open University, priority 2020, published 2024)
